For this assay, the system named is IL-1β secretion, THP-1 cells. As to the kind of experiment: IL-1β secretion assay in PMA-differentiated THP-1 cells (LPS + nigericin stimulation, IL-1β ELISA). The format is cell-based. The following applies: LPS 25 ng/mL, IL-1β by ELISA. Here is the method:
Compounds as provided herein were tested in the following assay. Cell culture medium employed contained RPMI 1640 medium (89%), FBS (10%), Pen/Strep (1%), and 2-mercaptoethanol (0.05 mm). Freezing medium was made up of 90% FBS and 10% DMSO. THP-1 cells were removed from the liquid nitrogen and placed into a 37° C. water bath to thaw, until signs of ice dissipated. The cells were then added to 9 mL of warm cell culture medium and centrifuged for 5 minutes at 1000 rpm. The supernatant was discarded, and the cells were resuspended in new cell culture medium. THP-1 cells were then split and cultured in the cell culture medium, being passaged every 2-3 days with the cell density will be maintained between 5×10^5 and 1.5×10^6 viable cells/mL.
Procedure for […], Secretion Assay in 384-Well Plates
PMA was dissolved in DMSO to make a stock solution at 5 mg/mL and stored in 10 μl aliquots at −20° C. for single use. PMA is added to normal growth medium. LPS was diluted with 1 mL of water solution to provide a 1 mg/mL stock solution and stored in 15 μl aliquots at −20° C. for single use. Nigericin is diluted in ice cold 100% ethanol to 5 mg/mL (6.7 mM) and stored in 75 μL aliquots at −20° C. for single use. Serum-free media contains RPMI 1640 medium (99%), Pen/Strep (1%), and 2-mercaptoethanol (0.05 mM). The two control conditions used to qualify and normalize test compound dose-response curves were as follows: High Control=25 ng/mL LPS, 5 μM Nigericin, 0.5% DMSO, Low Control=25 ng/mL, LPS, 0.5% DMSO.
THP-1 cells were diluted to provide a suspension at a concentration of 1.0×10^6 cells/mL with the total volume of suspension required to enable the desired number of assay plates. The growth media was supplemented with PMA (5 ng/mL final concentration) and the cells were incubated at 37° C. under a humidified atmosphere of 5% CO2 for 40 h.
All media was carefully aspirated from each culture flask. The cells were washed carefully with 1×DPBS. The cells were then briefly digested with trypsin LE for 5 minutes at 23° C. and immediately resuspended in cell growth media. After resuspension, the cells were centrifuged at 1000 rpm for 3 minutes and the supernatant was discarded. The cells were resuspended in DPBS and once again centrifuged at 1000 rpm for 5 minutes. The supernatant was discarded and the cell pellet was resuspended in serum-free media supplemented with LPS (25 ng/mL final concentration) to enable the distribution of 30K THP-1 cells within 45 μL of media into each well of 384-well PDL-coated plates. The 384-well plates were then incubated at 37° C. under a humidified atmosphere of 5% CO2 for 2 h. Following this period, test compounds were dispensed by Tecan across the desired concentration range with all wells normalized to a final 0.5% DMSO concentration. The plates were then incubated at 37° C. under a humidified atmosphere of 5% CO2 for 1 h. Following this period, 5 μL of the 5 mg/mL nigericin stock solution was added to each of the appropriate wells and plates were centrifuged at 1000 rpm for 30 seconds. The plates were the immediately reintroduced to the incubator at 37° C. under a humidified atmosphere of 5% CO2 for 2 h. After this time, 35 μL/well of supernatant was collected and transferred into v-bottom plate and centrifuged at 1000 rpm for 1 minute. These supernatant aliquots were analyzed using an IL-Iβ detection kit as described below. If needed, the test samples could be snap frozen and stored at −80° C. until analyzed.
To prepare each ELISA plate, capture antibody (mAb Mt175) was diluted with PBS to a final concentration of 2 μg/mL and then 20 μL of this solution was added to each well of the ELISA plate. Each plate was allowed to incubate overnight at 4° C. The next day, the capture antibody solution was removed and discarded. Each ELISA plate was washed 4 times with PBST followed by the addition of 25 μL/well of blocking buffer (Licor-927-40010) supplemented with 0.1% Tween 20. […]
On the technique in general: In an ELISA, binding on a coated surface is turned into a signal by an enzyme label.

Where [1] appears, read: Homo sapiens, THP-1, class symbol.
Where [2] appears, read: Homo sapiens, THP-1, numeric value.

By IC50 is commonly meant the concentration that gives 50% inhibition. For the molecule `N#Cc1cnc(NC(=O)CN2C(=O)c3ccc(Br)c(F)c3C3(CC3)C2=O)nc1` [Example 26, 2-(6′-bromo-5′-fluoro-1′,3′-dioxospiro[cyclopropane-1,4′-isoquinoline]-2′-yl)-N-(5-cyanopyrimidin-2-yl)acetamide], the IC50 runs as follows: under setting [1], below 10000 nM; under setting [2], 90 nM.

Take `CC1CC12C(=O)N(CC(=O)Nc1ncc(F)cn1)C(=O)c1ccc(Br)cc12` (stereo not drawn) [Example 25, 2-(6′-bromo-2-methyl-1′,3′-dioxospiro[cyclopropane-1,4′-isoquinoline]-2′-yl)-N-(5-fluoropyrimidin-2-yl)acetamide]: the IC50 under setting [1] is below 10000 nM and the IC50 under setting [2] came out at 391 nM.

`C[C@H]1C[C@@]12C(=O)N(CC(=O)Nc1ncc(F)cn1)C(=O)c1ccc(Br)cc12` (single isomer, unassigned) [Example 13, N-(5-fluoropyrimidin-2-yl)-2-[(1r,2s)-6′-bromo-2-methyl-1′,3′-dioxospiro[cyclopropane-1,4′-isoquinoline]-2′-yl]acetamide]: the IC50 is, setting by setting: under setting [1], below 10000 nM; (numeric value) 286 nM.

Regarding `O=C(CN1C(=O)c2ccc(Br)cc2C2(CCC2)C1=O)Nc1ncc(F)cn1` [Example 8, 2-(6′-bromo-1′,3′-dioxospiro[cyclobutane-1,4′-isoquinoline]-2′-yl)-N-(5-fluoropyrimidin-2-yl)acetamide], the IC50 by setting is: under setting [1], below 10000 nM; under setting [2], 388 nM.

Take `N#Cc1cnc(NC(=O)CN2C(=O)c3ccc(Br)c(F)c3C3(CC3)C2=O)c(F)c1` [Example 18, 2-(6′-bromo-5′-fluoro-1′,3′-dioxospiro[cyclopropane-1,4′-isoquinoline]-2′-yl)-N-(5-cyano-3-fluoropyridin-2-yl)acetamide]: the IC50 reads like this: under setting [1], below 10000 nM; under setting [2], 331 nM.

Regarding `CC(C(=O)Nc1ncc(F)cn1)N1C(=O)c2ccc(Br)c(F)c2C2(CC2)C1=O` (stereo not drawn) [Example 21, 2-(6′-bromo-5′-fluoro-1′,3′-dioxospiro[cyclopropane-1,4′-isoquinoline]-2′-yl)-N-(5-fluoropyrimidin-2-yl)propanamide], the IC50 is, setting by setting: under setting [1], below 10000 nM; under setting [2], 936 nM.

As for `N#Cc1cnc(NC(=O)CN2C(=O)c3ccc(Br)cc3C3(CC3)C2=O)nc1` [Example 31, 2-(6′-bromo-1′,3′-dioxospiro[cyclopropane-1,4′-isoquinoline]-2′-yl)-N-(5-cyanopyrimidin-2-yl)acetamide], the IC50 under setting [1] is below 10000 nM and the IC50 under setting [2] came out at 208 nM.

On to `O=C(CN1C(=O)c2ccc(Br)cc2C2(CCCC2)C1=O)Nc1ncc(F)cn1` [Example 12, 2-(6′-bromo-1′,3′-dioxospiro[cyclopentane-1,4′-isoquinoline]-2′-yl)-N-(5-fluoropyrimidin-2-yl)acetamide], for which the IC50 by setting is: under setting [1], below 10000 nM; under setting [2], 1360 nM.

With `O=C(CN1C(=O)c2ccc(Br)cc2C2(CC2)C1=O)Nc1ncc(Cl)cn1` [Example 32, 2-(6′-bromo-1′,3′-dioxospiro[cyclopropane-1,4′-isoquinoline]-2′-yl)-N-(5-chloropyrimidin-2-yl)acetamide], the IC50 was below 10000 nM under setting [1] and 137 nM under setting [2].

Regarding `O=C(CN1C(=O)c2ccc(C(F)(F)F)cc2C2(CC2)C1=O)Nc1ncc(F)cn1` [Example 15, 2-[1′,3′-dioxo-6′-(trifluoromethyl)spiro[cyclopropane-1,4′-isoquinoline]-2′-yl]-N-(5-fluoropyrimidin-2-yl)acetamide], the IC50 by setting is: under setting [1], below 10000 nM; under setting [2], 893 nM.

Regarding `O=C(CN1C(=O)c2ccc(Br)cc2C2(CC(F)(F)C2)C1=O)Nc1ncc(F)cn1` [Example 10, 2-(6′-bromo-1,1-difluoro-1′,3′-dioxospiro[cyclobutane-3,4′-isoquinoline]-2′-yl)-N-(5-fluoropyrimidin-2-yl)acetamide], the IC50 runs as follows: under setting [1], 10000 to 15000 nM; under setting [2], 13100 nM.

Consider `O=C(CN1C(=O)c2ccc(C3CC3)c(F)c2C2(CC2)C1=O)Nc1ncc(F)cn1` [Example 11, 2-(6′-cyclopropyl-5′-fluoro-1′,3′-dioxospiro[cyclopropane-1,4′-isoquinoline]-2′-yl)-N-(5-fluoropyrimidin-2-yl)acetamide], for which the IC50 was below 10000 nM under setting [1] and 332 nM under setting [2].

(Values after patent US20240254132A1, “COMPOUNDS, COMPOSITIONS AND METHODS” (Denali Therapeutics Inc., priority 2021, published 2024).)
